Results: patent US20150335634A1, “ISOQUINOLINE ALKALOID DERIVATIVE FOR ACTIVATING AMP-DEPENDENT PROTEIN KINASE” (ZIH YUAN TANG Biotechnology Co., Ltd, priority 2014, published 2015)

Tests used:
[1] = test system: AMP-dependent protein kinase (AMPK); assay: AMPK phosphorylation (Phospho-AMPKα Thr172 Western blot) in C2C12 myocytes; format: cell-based, mice
Description: C2C12 skeletal myoblast cell line was purchased from the Food Industry Research and Development Institute (Hsinchu, Taiwan). The C2C12 cell line was a cell line obtained from culturing the leg skeletal muscle of adult C3H mice in a cell incubator under 95% […], 5% CO2, and 37° C. The cells were cultured in a DMEM medium (Gibco/Invitrogen, Carlsbad, Calif.) containing 4.5 mg/mL glucose, 10% fetal bovine serum (FBS; Gibco/Invitrogen, Carlsbad, Calif.), and an antibiotic solution (with final concentrations of penicillin=100 IU/mL and streptomycin=100 μg/mL). When the C2C12 myoblast cells have proliferated to cover seven-tenths of the area in the petri dish, the fetal bovine serum was replaced by 2% horse serum (Gibco/Invitrogen, Carlsbad, Calif.) so as to induce the C2C12 myoblast cells to become the multi-nuclei myocytes. The C2C12 myoblast cells differentiated into myocytes in 4 days, and the culture medium of the cells was replaced with no-serum DMEM 24 hours before the experiments so as to reduce metabolism of the cells.
The C2C12 myocytes were treated respectively with 1 μM, 3 μM and 10 μM salsolinol and reticuline for 5 and 15 minutes. Then the C2C12 myocytes were rinsed with PBS buffer solution, and RIPA buffer solution containing protease inhibitors (20 mM Tris-HCl (pH 7.4), 100 mM NaCl, 1 mM EDTA, 1 mM EGTA, 0.1% SDS, 0.5% sodium deoxycholate, 1% NP-40, and 100X protease inhibitor cocktail) was added into the cells. The cells were collected and centrifuged on ice. Then, the concentrations of the supernatant samples were adjusted to be the same.
The supernatant samples were put through vertical electrophoresis isolation with 8% SDS-PAGE, and the isolated proteins were transferred onto a PVDF blotting membrane. After blotting was completed, the PVDF blotting membrane was removed and blocked for 1 hour under room temperature with a blocking buffer of TBST (Tris-buffered saline with Tween-20) with 5% non-fat milk. Then, the PVDF blotting membrane was placed into a 5% BSA and TBST solution containing the primary monoclonal antibodies Phospho-AMPKα (Thr172) (Cell Signaling) (1:1000) and AMPKα […] (Cell Signaling) (1:1000), respectively, and the primary immunoblotting reaction was performed under 4° C. Then, the PVDF blotting membrane was rinsed 3 times with TBST, and a TBST solution containing the secondary antibody goat anti-rabbit IgG (Perkin Elmer) (1:10000) was added to perform the secondary reaction for one hour under room temperature. Finally, the membrane was rinsed 3 times with TBST before ECL (enhanced chemiluminescence) was added to present color.

[2] = test system: ICR mice with Type II diabetes induced by high-sugar high-lipid food; assay: oral glucose tolerance test (OGTT) in ICR mice fed with high-lipid food and high fructose syrup; format: in vivo
Description: (§1) ICR mice were each fed with high-lipid food and high fructose syrup for 2 weeks. Then, salsolinol (10 mg/Kg/day) and Glibenclamide (10 mg/Kg) were administered on day 1. After 30 minutes, glucose (1 g/Kg) was orally administered and blood was taken from the mice immediately thereafter (this time point was designated as 0 minute). Blood was also taken later at 30, 60, 90, 120 and 150 minutes, and the blood glucose levels in the serum were determined
as §1, with “weeks, and then administered with salsolinol (10 mg/Kg/day) and Glibenclamide (10 mg/Kg) for 14 consecutive days. Afterwards,” for “weeks. Then,”, “again administered, and” for “administered on day 1. After 30 minutes,”, “administered after 30 minutes” for “administered”, “determined.” for “determined”
The effect of blood glucose reduction was evaluated with the oral glucose tolerance test (OGTT). […] Blood was also taken later at 30, 60, 90, 120 and 150 minutes, and the blood glucose levels in the serum were determined after centrifugation.

[3] = test system: insulin secretion; assay: effect on insulin secretion compared with Glibenclamide; settings: as opposed to Glibenclamide

SMILES | AMPK phosphorylation relative to control cells ([1]; 3 μM, treated for 5 minutes) | AMPK phosphorylation relative to control cells ([1]; 3 μM, treated for 15 minutes) | AMPK phosphorylation relative to control cells ([1]; 10 μM, treated for 5 minutes) | AMPK phosphorylation relative to control cells ([1]; 10 μM, treated for 15 minutes) | long-term reduction of blood glucose (OGTT) ([2]; 10 mg/Kg/day for 14 consecutive days, glucose 1 g/Kg orally after 30 minutes, compared with Glibenclamide 10 mg/Kg (FIG. 4)) | fast reduction of blood glucose (OGTT) ([2]; 10 mg/Kg/day, administration on day 1, glucose 1 g/Kg orally after 30 minutes, compared with Glibenclamide 10 mg/Kg (FIG. 3)) | effect on insulin secretion [3]
COc1ccc(C[C@H]2c3cc(O)c(OC)cc3CCN2C)cc1O [reticuline] | 1.52 times of that in the control cells | 1.04 times of that in the control cells | 2.05 times of that in the control cells | 2.07 times of that in the control cells |  |  | 
CC1NCCc2cc(O)c(O)cc21 (centres unmarked) [salsolinol] |  |  | 1.66 times of that in the control cells |  | blood glucose-reduction effect similar to that of Glibenclamide | blood glucose-reduction effect similar to that of Glibenclamide | lower effect on insulin secretion
